This test deals with human ACC2 (Homo sapiens (Human), UniProt O00763). Briefly: ACC2 assay: spectrophotometric 384 well assay (coupled lactate dehydrogenase/pyruvate kinase). The note with it: hACC2 construct lacking the 128 N-terminal amino acids, 25° C., 340 nm. It is filed as biochemical. The protocol:
Spectrophotometric 384 Well Assay
Malonyl CoA formation by acetyl CoA carboxylases is stoichiometrically linked to the consumption of ATP. ACC2 activity is measured in a […] kinetic method measuring ADP generated during the ACC reaction using a coupled lactate dehydrogenase/pyruvate kinase reaction.
For biological testing, a human ACC2 construct which lacks the 128 amino acids at the N-terminus for increased solubility (nt 385-6966 in Genbank entry AJ575592) is cloned. The protein is then expressed in insect cells using a baculoviral expression system. Protein purification is performed by anion exchange.
All compounds are dissolved in dimethyl sulfoxide (DMSO) to a concentration of 10 mM.
Assay reactions are then carried out in 384-well plates, with hACC2 in an appropriate dilution and at final assay concentrations (f.c.) of 100 mM Tris (pH 7.5), 10 mM trisodium citrate, 25 mM KHCO3, 10 mM MgCl2, 0.5 mg/ml BSA, 3.75 mM reduced L-glutathione, 15 U/ml lactate dehydrogenase, 0.5 mM phosphoenolpyruvate, 15 U/ml pyruvate kinase, compounds at different concentrations at final DMSO concentrations of 1%.
The enzymatic reaction is then started by addition of a mixture of NADH, acetyl Coenzyme A (both […].) and ATP (500 uM f.c.). The decrease of the optical density (slope S) is then determined at 25° C. at a wavelength of 340 nm over 15 minutes in a spectrophotometric reader.
Each assay microtiter plate contains wells with vehicle instead of compound as controls for the non-inhibited enzyme (100% CTL; ‘HIGH’) and wells without acetyl-CoA as controls for non-specific NADH degradation (0% CTL; ‘LOW’).
The slope S is used for calculation of % CTL=(S(compound)−S(‘LOW’))/(S(‘HIGH’)−S(‘LOW’))*100. Compounds will give values between 100% CTL (no inhibition) and 0% CTL (complete inhibition).
For IC50 value determination, the sample slope in the presence of the test compound after subtraction of the low controls (S(compound)−S(‘LOW’)) are used.
An IC50 value is derived from the compound slopes at different dosages after subtraction of the low controls (S(compound)-S(‘LOW’)) by non-linear regression curve fitting (equation y=(A+((B−A)/(1+((C/x)^D))))).

The source of these data is patent publication US9340510B2, “Tetrahydroisoquinoline derivatives, pharmaceutical compositions and uses thereof” (Boehringer Ingelheim International GmbH, priority 2014, dated 2016).

human ACC2, sequence (O00763 129-2458): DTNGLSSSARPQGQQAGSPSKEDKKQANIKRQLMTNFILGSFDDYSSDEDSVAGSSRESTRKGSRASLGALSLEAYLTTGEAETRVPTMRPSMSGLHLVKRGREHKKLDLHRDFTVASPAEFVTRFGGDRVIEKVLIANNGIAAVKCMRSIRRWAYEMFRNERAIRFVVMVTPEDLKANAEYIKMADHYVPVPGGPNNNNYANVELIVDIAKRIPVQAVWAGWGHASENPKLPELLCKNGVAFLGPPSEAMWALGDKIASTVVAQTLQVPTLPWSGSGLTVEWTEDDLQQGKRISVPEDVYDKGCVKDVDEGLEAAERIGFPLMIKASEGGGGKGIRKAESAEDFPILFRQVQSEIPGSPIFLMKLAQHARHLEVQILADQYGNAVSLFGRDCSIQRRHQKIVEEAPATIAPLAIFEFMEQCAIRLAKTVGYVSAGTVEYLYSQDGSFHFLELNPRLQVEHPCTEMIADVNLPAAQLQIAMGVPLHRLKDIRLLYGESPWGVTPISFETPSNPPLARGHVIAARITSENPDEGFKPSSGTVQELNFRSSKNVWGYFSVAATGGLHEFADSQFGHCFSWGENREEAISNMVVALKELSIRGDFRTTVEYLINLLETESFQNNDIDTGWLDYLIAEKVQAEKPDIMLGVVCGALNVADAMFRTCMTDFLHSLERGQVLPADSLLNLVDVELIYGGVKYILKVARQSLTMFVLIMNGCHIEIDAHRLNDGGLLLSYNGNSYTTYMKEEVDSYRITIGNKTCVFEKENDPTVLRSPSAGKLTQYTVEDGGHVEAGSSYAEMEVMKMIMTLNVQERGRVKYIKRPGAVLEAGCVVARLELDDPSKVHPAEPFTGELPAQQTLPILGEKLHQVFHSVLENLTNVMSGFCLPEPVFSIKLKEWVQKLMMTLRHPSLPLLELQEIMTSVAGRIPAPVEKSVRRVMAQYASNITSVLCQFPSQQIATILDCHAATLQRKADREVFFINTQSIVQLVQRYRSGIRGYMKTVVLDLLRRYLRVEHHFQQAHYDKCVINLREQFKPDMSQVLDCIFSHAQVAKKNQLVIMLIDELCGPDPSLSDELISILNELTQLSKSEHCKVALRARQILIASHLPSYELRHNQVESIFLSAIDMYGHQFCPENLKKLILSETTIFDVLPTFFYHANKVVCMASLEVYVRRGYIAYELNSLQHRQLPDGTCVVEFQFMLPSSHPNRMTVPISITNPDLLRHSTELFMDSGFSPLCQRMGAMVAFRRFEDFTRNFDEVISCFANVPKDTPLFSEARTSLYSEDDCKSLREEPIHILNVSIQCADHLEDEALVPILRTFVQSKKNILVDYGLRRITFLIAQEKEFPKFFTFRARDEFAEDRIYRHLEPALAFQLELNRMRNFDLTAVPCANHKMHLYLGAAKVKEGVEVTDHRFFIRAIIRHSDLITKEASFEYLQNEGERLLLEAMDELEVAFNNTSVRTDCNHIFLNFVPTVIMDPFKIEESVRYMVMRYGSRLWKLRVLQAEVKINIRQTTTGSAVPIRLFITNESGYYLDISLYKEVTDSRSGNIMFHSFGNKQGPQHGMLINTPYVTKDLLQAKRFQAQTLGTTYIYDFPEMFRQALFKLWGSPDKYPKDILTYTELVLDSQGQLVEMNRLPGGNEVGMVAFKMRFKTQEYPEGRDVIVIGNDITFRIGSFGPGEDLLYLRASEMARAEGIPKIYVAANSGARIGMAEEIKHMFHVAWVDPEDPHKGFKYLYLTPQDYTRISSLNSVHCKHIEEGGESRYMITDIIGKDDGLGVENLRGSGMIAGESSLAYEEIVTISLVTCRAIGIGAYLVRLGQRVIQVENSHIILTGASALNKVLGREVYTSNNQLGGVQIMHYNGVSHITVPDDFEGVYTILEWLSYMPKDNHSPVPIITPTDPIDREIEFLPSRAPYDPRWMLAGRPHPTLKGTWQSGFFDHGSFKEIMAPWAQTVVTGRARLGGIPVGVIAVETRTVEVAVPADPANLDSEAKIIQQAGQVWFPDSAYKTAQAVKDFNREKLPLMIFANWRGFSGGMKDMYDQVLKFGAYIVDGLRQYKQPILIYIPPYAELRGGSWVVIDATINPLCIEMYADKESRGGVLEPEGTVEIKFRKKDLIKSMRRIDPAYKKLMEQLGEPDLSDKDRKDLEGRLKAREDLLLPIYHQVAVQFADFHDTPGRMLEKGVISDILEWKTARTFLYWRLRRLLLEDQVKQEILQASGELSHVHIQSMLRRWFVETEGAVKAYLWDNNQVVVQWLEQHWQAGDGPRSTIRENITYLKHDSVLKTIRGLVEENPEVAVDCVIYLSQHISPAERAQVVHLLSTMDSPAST

Molecule `COc1c(OCC2CC2(F)F)ccc2c1CCN(Cc1ccc([C@H](C)NC(C)=O)cc1)C2` (some centres unmarked) [Example 1.064] displayed an IC50 of 104 nM.
As for `COc1c(OCCCF)ccc2c1CCN(Cc1ccc([C@H](C)NC(C)=O)cc1)C2` [Example 1.065], the midpoint of inhibition, the IC50, lay at 211 nM.
In turn, `COc1c(OCCC(F)(F)F)ccc2c1CCN(Cc1ccc([C@H](C)NC(C)=O)cc1)C2` [Example 1.066] gave an IC50 of 111 nM.
Next, `CCOc1ccc2c(c1OC)CCN(Cc1ccc([C@H](C)NC(C)=O)cc1)C2` [Example 1.067]: 233 nM.
Take `COc1c(OCC(C)C)ccc2c1CCN(Cc1ccc([C@H](C)NC(C)=O)cc1)C2` [Example 1.068]: the IC50 stood at 70 nM.
`COc1c(OC(C)C)ccc2c1CCN(Cc1ccc([C@H](C)NC(C)=O)cc1)C2` [Example 1.069] gave a half-maximal inhibitory concentration (IC50) of 418 nM.
In the case of `COc1c(OC2CCC2)ccc2c1CCN(Cc1ccc([C@H](C)NC(C)=O)cc1)C2` [Example 1.070] it was 145 nM; in that of `COc1c(OCC(F)F)ccc2c1CCN(Cc1ccc([C@H](C)NC(C)=O)cc1)C2` [Example 1.071], 340 nM; in that of `COc1c(OCCC(F)F)ccc2c1CCN(Cc1ccc([C@H](C)NC(C)=O)cc1)C2` [Example 1.072], 141 nM.
Molecule `COc1c(OCC2CCC2)ccc2c1CCN(Cc1ccc([C@H](C)NC(C)=O)cc1)C2` [Example 1.073] showed an IC50 of 40 nM.
`CCCOc1ccc2c(c1OC)CCN(Cc1ccc([C@H](C)NC(C)=O)cc1)C2` [Example 1.074] displayed an IC50 of 79 nM.
In the case of `COc1c(OCC2CC(F)(F)C2)ccc2c1CCN(Cc1ccc([C@H](C)NC(C)=O)cc1)C2` [Example 1.075] it was 55 nM; in that of `COc1c(OCC2CC2)ccc2c1CCN(Cc1ccc([C@H](C)NC(C)=O)cc1)C2` [Example 1.076], 68 nM.
Molecule `COc1c(OCCC2CC2)ccc2c1CCN(Cc1ccc([C@H](C)NC(C)=O)cc1)C2` [Example 1.077] gave an IC50 of 40 nM.
Next, `CC(=O)N[C@@H](C)c1ccc(CN2CCc3c(ccc(Cl)c3Cl)C2)cc1` [Example 1.078]: 67 nM.
With `CC(=O)N[C@@H](C)c1ccc(CN2CCc3c(ccc(OC(C)C)c3Br)C2)cc1` [Example 1.079], the IC50 is 136 nM.
`COc1ccc2c(c1F)CCN(Cc1ccc([C@H](C)NC(C)=O)cc1)C2` [Example 1.080] came in with an IC50 of 396 nM.
In the case of `CC(=O)N[C@@H](C)c1ccc(CN2CCc3cc(Cl)ccc3C2)cc1` [Example 1.081] it was 232 nM.
Molecule `CC(=O)N[C@@H](C)c1ccc(CN2CCc3cc(OCC4CC4(F)F)ccc3C2C)cc1` (some centres unmarked) [Example 1.082] returned an IC50 of 39 nM.
`CCOc1ccc2c(c1OC)CCN(Cc1ccc([C@H](C)NC(C)=O)cc1)C2C` (some centres unmarked) [Example 1.083] came in with an IC50 of 449 nM.
With `COc1c(OCC2CC2(F)F)ccc2c1CCN(Cc1ccc([C@H](C)NC(C)=O)cc1)C2C` (some centres unmarked) [Example 1.084], the IC50 is 263 nM.
Next, `COc1c(OC2CCC2)ccc2c1CCN(Cc1ccc([C@H](C)NC(C)=O)cc1)C2C` (some centres unmarked) [Example 1.085]: 280 nM; `COc1c(OCC2CC2)ccc2c1CCN(Cc1ccc([C@H](C)NC(C)=O)cc1)C2C` (some centres unmarked) [Example 1.086]: 227 nM.
As for `COc1c(OCC2CC(F)(F)C2)ccc2c1CCN(Cc1ccc([C@H](C)NC(C)=O)cc1)C2C` (some centres unmarked) [Example 1.087], the IC50 worked out at 189 nM.
In turn, `CC(=O)N[C@@H](C)c1ccc(CN2CCc3cc(OCC4CC4)ccc3C2)cc1` [Example 1.088] had an IC50 of 12 nM.
For `CC(=O)N[C@@H](C)c1ccc(CN2CC(=O)c3cc(OCc4ccccc4)ccc3C2)cc1` [Example 1.089], half-maximal inhibition (IC50) was put at 89 nM.
In the case of `CC(=O)N[C@@H](C)c1ccc(CN2CC(=O)c3cc(OCC4CC4)ccc3C2)cc1` [Example 1.090] it was 65 nM; in that of `CC(=O)N[C@@H](C)c1ccc(CN2Cc3ccc(OCC4CC4(F)F)cc3C(O)C2)cc1` (some centres unmarked) [Example 1.091], 130 nM; in that of `CC(=O)N[C@@H](C)c1ccc(CN2Cc3ccc(OCC4CC4(F)F)cc3C(F)C2)cc1` (some centres unmarked) [Example 1.092], 16 nM.
Molecule `CC(=O)N[C@@H](C)c1ccc(CN2Cc3ccc(OCC4CC4)cc3C(F)C2)cc1` (some centres unmarked) [Example 1.093] displayed a 50% inhibitory concentration (IC50) of 20 nM.
Take `COC1CN(Cc2ccc([C@H](C)NC(C)=O)cc2)Cc2ccc(OCC3CC3)cc21` (some centres unmarked) [Example 1.094]: the IC50 came out at 296 nM.
With `COc1ccc2c(c1F)CCN(Cc1ccc([C@H](C)NC(C)=O)cc1)C2C` (some centres unmarked) [Example 1.095], the IC50 came to 494 nM.
Molecule `CC(=O)N[C@@H](C)c1ccc(CN2Cc3ccc(OCC4CC4)cc3C(O)C2)cc1` (some centres unmarked) [Example 1.096] showed a 50% inhibitory concentration (IC50) of 315 nM.
`CC(=O)N[C@@H](C)c1ccc(CN2Cc3ccc(OCC4CC4)cc3C(F)(F)C2)cc1` [Example 1.097] registered an IC50 of 38 nM.
`CC(=O)N[C@@H](C)c1ccc(CN2Cc3ccc(OC(C)C)cc3C(O)C2)cc1` (some centres unmarked) [Example 1.098] showed an IC50 of 392 nM.
Next, `CC(=O)N[C@@H](C)c1ccc(CN2Cc3ccc(OC4CCC4)cc3C(O)C2)cc1` (some centres unmarked) [Example 1.099]: 421 nM; `CC(=O)N[C@@H](C)c1ccc(CN2Cc3ccc(OC(C)C)cc3C(F)C2)cc1` (some centres unmarked) [Example 1.100]: 30 nM.
Next, `CC(=O)N[C@@H](C)c1ccc(CN2Cc3ccc(OCC4CCC4)cc3C(O)C2)cc1` (some centres unmarked) [Example 1.101]: 55 nM.
In the case of `COc1cccc2c1CCN(Cc1ccc([C@H](C)NC(=O)c3cncs3)cc1)C2` [Example 2.001, Thiazole-5-carboxylic acid {(S)-1-[4-(5-methoxy-3,4-dihydro-1H-isoquinolin-2-ylmethyl)-phenyl]-ethyl}-amide] it was 135 nM; in that of `COc1cccc2c1CCN(Cc1ccc([C@H](C)NC(=O)C3CC3)cc1)C2` [Example 2.002], 237 nM.
`COc1cccc2c1CCN(Cc1ccc([C@H](C)NC(=O)c3sc(NC(C)=O)nc3C)cc1)C2` [Example 2.003]: the midpoint of inhibition, the IC50, lay at 157 nM.
Consider `C[C@H](NC(=O)CC(=O)N(C)C)c1ccc(CN2CCc3cc(OCC4CC4)ccc3C2)cc1` [Example 2.03], for which the IC50 stood at 459 nM.
In turn, `COc1cccc2c1CCN(Cc1ccc([C@H](C)NC(=O)c3cn[nH]c3)cc1)C2` [Example 2.004] gave an IC50 of 184 nM.
In the case of `C[C@H](NC(=O)CC#N)c1ccc(CN2CC(=O)c3cc(OCC4CC4(F)F)ccc3C2)cc1` (some centres unmarked) [Example 2.04], inhibition was half-maximal at 450 nM (IC50).
`CC(=O)Nc1nc(C)c(C(=O)N[C@@H](C)c2ccc(CN3CCc4c(cccc4C(F)(F)F)C3)cc2)s1` [Example 2.005] gave an IC50 of 105 nM.
The molecule `C[C@H](NC(=O)c1cncs1)c1ccc(CN2CCc3c(cccc3C(F)(F)F)C2)cc1` [Example 2.006] showed an IC50 of 85 nM.
As to `C[C@H](NC(=O)C1CC1)c1ccc(CN2CCc3c(cccc3C(F)(F)F)C2)cc1` [Example 2.007], the IC50 was determined as 104 nM.
Molecule `C[C@H](NC(=O)c1cn[nH]c1)c1ccc(CN2CCc3c(cccc3C(F)(F)F)C2)cc1` [Example 2.008] returned an IC50 of 100 nM.
In the case of `C[C@H](NC(=O)C1CC1)c1ccc(CN2CCc3c(Br)cccc3C2)cc1` [Example 2.009] it was 249 nM.
`C[C@H](NC(=O)c1cncs1)c1ccc(CN2CCc3c(Br)cccc3C2)cc1` [Example 2.010] came in with a concentration for half-maximal inhibition (IC50) of 179 nM.

Usually IC50 stands for the concentration at which inhibition is half-maximal.
